Laboratory results from PMC9920413, “New Bicyclic Pyridine-Based Hybrids Linked to the 1,2,3-Triazole Unit: Synthesis via Click Reaction and Evaluation of Neurotropic Activity and Molecular Docking” (Molecules, 2023).
Values joined by “and” are separate entries in the source; they are usually repeats but may differ in a detail not shown here. Equal entries are not always repeated.

Assays:
mice [1] = test: Rotating rod test (neurotoxicity, myorelaxation); type: in vivo; conditions: i.p., myorelaxation in 50% of animals
Procedure: (§1) The study of the anticonvulsant activity of hybrids 7a–u was assessed by evaluating the antagonism to pentylenetetrazole (PTZ), thiosemicarbazide convulsive seizures, and maximal electroshock-induced seizures (MES). The PTZ-induced test is considered an experimental model for the clonic component of epilepsy seizures and the prognostic anxiolytic activity of the compounds. PTZ is a common convulsive agent used in animal models to investigate the mechanisms of seizures. The model of thiosemicarbazide (TSC) seizures (affecting the exchange of GABA) causes clonic seizures similar to pentylenetetrazole ones. The MES test is used as an animal model for the generalization of tonic seizures in epilepsy. The neurotoxicity and side effects of the compounds (movement coordination disorder, myorelaxation, and ataxia) were also studied on mice with the “rotating rod”[29] test.
(§2) Adverse neurotoxic (muscle relaxant) effects of compounds were studied at doses of 50 to 500 mg/kg when administered intraperitoneally, as well as reference drugs in effect at anticonvulsant doses. Myorelaxation was investigated with the test of a “rotating rod” in mice. To this end, mice were planted on a metal rod with a corrugated rubber coating, which rotated at a speed of 5 revolutions per minute. The number of animals that cnot stay on it for 2 min was determined. To determine the ED50, neurotoxic TD50, and LD50, the statistical method of penetration by Litchfield and Wilcoxon was used.

mouse = test: Elevated plus maze (EPM) test; type: in vivo; conditions: 50 mg/kg i.p., 5 min; for Number of Entries into the Closed Arms: control 9.4 ± 1.6; for Time Spent in the Center: control 28.2 ± 3.12; for Time Spent in Closed Arms: control 269.2 ± 10.4
From the text: Elevated plus maze—EPM test. Anti-anxiety and sedative effects were studied on mouse a model of the “elevated plus maze”. The labyrinth is a cruciform machine raised above the floor, with a pair of open and closed sleeves opposed to each other. Normal animals prefer to spend most of their time in the closed (dark) sleeves of the labyrinth. The anxiolytic effect of the compounds was estimated by the increase in the number of entries into open (light) sleeves and the time spent in them without increasing the total motor activity. This records the time spent in the closed sleeve and the number of attempts to enter the installation center. In the above model, the test compounds and the reference drug were injected intraperitoneally before the experiments. The control animals were administered as an emulsifier. Results were processed statistically (p < 0.05).

rats [2] = test: Electroshock retrograde amnesia, conditioned response of passive avoidance (CRPA); type: in vivo; conditions: 50 mg/kg, study for 5 min; for The Time Spent in the Light Chamber during the Training of the CRPA, First Day: control 280.0 ± 7.5; for The Time Spent in the Light Chamber When Playing CRPA + MESH after 24 h, Second Day: control 281.0 ± 6.1
Procedure: Test for learning and memory. The antiamnesic properties of the compounds were studied using an electroshock amnesia model modified by J. Bures, O. Buresova. In rats, a conditioned passive avoidance reaction (CRPA) to a dark-light setting was developed, while the training of the animals with CRPA was recorded. The residence times in the light and dark compartments were recorded for 5 min (300 s). Then, in the dark compartment, the animal received a single current shock (0.4 mA) through the electrode floor (training). To obtain amnesia, a maximum electroconvulsive seizure is induced in animals (conducting a maximum electric current of 50 Hz for 0.2 s through corneal electrodes). Conducting an electric shock immediately after training causes the erasure of the memory trace. The test for reproduction is carried out 24 h after training—after the development of CRPA. During this period, the control animals forget the training and prefer to be in the dark part of the chamber. An increase in the time spent by rats in the light compartment compared to the control on the second day indicates the presence of antiamnestic properties of the compounds.

rats [3] = test: Open field test; type: in vivo; conditions: 50 mg/kg i.p.; for Cells Examination, amount (absolute data during 5 min): control 2.4 ± 0.67; for Vertical Displacement, amount (absolute data during 5 min): control 7.0 ± 2.14; for Horizontal Displacement, amount (absolute data during 5 min): control 21.6 ± 2.25
Procedure: Open field test. The research-motor behavior of rats was studied on a modified “open field” model. For this purpose, an installation was used, the bottom of which is divided into squares with holes (cells). Experiments were performed in the daytime with natural light. Within 5 min of the experiment, the indicators of sedative and activating behavior were determined, namely the number of horizontal movements, standing on the hind legs (vertical movements), and sniffing of the cells. The number of animals on this model was eight for each compound, control, and reference drug.

[4] = system: pentylenetetrazole (PTZ)-induced convulsions; test: Antagonism to pentylenetetrazole (PTZ) convulsions; type: in vivo; conditions: for ED50 (by PTZ antagonism): mice, i.p. 45 min before PTZ 90 mg/kg s.c., confidence limits in brackets, p = 0.05; for TI: therapeutic index TI = LD50/ED50
Procedure: as §1
The anticonvulsant effect of the newly synthesized compounds was investigated by tests comprising pentylenetetrazole, thiosemicarbazide convulsions, and maximal electroshock (MES). Outbred mice (weight 18–22 g) were used for the study. […] Each animal is placed into an individual plastic cage for observation lasting 1 h. Seizures and clonic convulsions were recorded. […] The control animals were administered as an emulsifier. Every dose of each test compound was studied in six animals.
as §2

[5] = system: thiosemicarbazide (TSC)-induced convulsions; test: Thiosemicarbazide (TSC) seizures; type: in vivo, mice; conditions: mice; for Latency of Convulsions, Induced by TSC, M ± M: compound 100 mg/kg i.p. 45 min before TSC 18 mg/kg s.c.; for Latency of Convulsions, Induced by TSC, I (index of latent period of TSC seizures): compound 100 mg/kg i.p., relative to control = 1.0
Procedure: as §1
Thiosemicarbazide, an antimetabolite of GABA inhibitor (glutamic acid decarboxylase) in the brain, is administered subcutaneously to mice at a dose of 18 mg/kg as a 0.5% solution, which causes clonic convulsions in animals. Anti-thiosemicarbazide activity was evaluated based on the latency time of the onset of seizures. Compounds were administered intraperitoneally at doses of 100 mg/kg in suspension with carboxymethylcellulose and Tween-80 45 min before administration of thiosemicarbazide.

mice [6] = test: in vivo; conditions: dead animals after 24 h
Procedure: as §2

mice [7] = test: Forced swimming test; conditions: 50 mg/kg, 6 min; for Total Time of Immobilization: control 42.0 ± 7.24; for Total Time of Active Swimming: control 318.0 ± 8.36;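 on all read-outs here: mice made to swim in a water-filled glass vessel under natural light, with durations of active swimming and immobility recorded across the 6 min session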
Procedure: Forced swimming test. To assess “despair and depression”, the “compelling swimming” model was used. Experimental animals were forced to swim in a glass container (height 22 cm, diameter 14 cm), filled 1/3 with water. […] The latent period of immobilization, the total duration of active swimming and immobilization are fixed at 6 min (the experiments were conducted under natural light).

Row | Compound | TD50 (mice [1]) | Time Spent in the Open Arms (mouse; control 2.6 ± 1.6, 50 mg/kg) | Number of Entries into the Closed Arms (mouse) | Time Spent in the Center (mouse) | Time Spent in Closed Arms (mouse) | The Time Spent in the Light Chamber during the Training of the CRPA, First Day (rats [2]) | The Time Spent in the Light Chamber When Playing CRPA + MESH after 24 h, Second Day (rats [2]) | Cells Examination, amount (absolute data during 5 min) (rats [3]) | Vertical Displacement, amount (absolute data during 5 min) (rats [3]) | Horizontal Displacement, amount (absolute data during 5 min) (rats [3]) | ED50 (by PTZ antagonism) [4] | TI [4] | Latency of Convulsions, Induced by TSC, M ± M [5] | Latency of Convulsions, Induced by TSC, I (index of latent period of TSC seizures) [5] | LD50 (mice [6]) | Total Time of Immobilization (mice [7]) | Total Time of Active Swimming (mice [7]) | Time Spent in the Open Arms (mouse; control 2.6 ± 1.6) | melting point
1 | 6-{4-[(4-{[(4-Cyano-1-isopropyl-5,6,7,8-tetrahydroisoquinolin-3-yl)oxy]methyl}-1H-1,2,3-triazol-1-yl)acetyl]piperazin-1-yl}-1,3,3-trimethyl-3,4-dihydro-1H-pyrano [3,4-c]pyridine-5-carbonitrile [7g] | >500 mg/kg | 6.6 s and 6.6 ± 2.3 s | 6.0 ± 1.67 | 53.4 ± 3.53 s | 237.8 ± 12.5 s | 283.0 ± 5.2 s | 297.0 ± 7.2 s | 10.0 ± 3.56 | 9.0 ± 2.34 | 49.0 ± 7.16 | 18 (10.6 ÷ 30.6) mg/kg | 37.8 | 28.4 ± 0.67 min | 2.84 | 680 (571 ÷ 809) mg/kg | 3.0 ± 0.6 s | 357.0 ± 13.5 s | – | –
2 | 6-{4-[(4-{[(4-Cyano-1-isopropyl-5,6,7,8-tetrahydroisoquinolin-3-yl)oxy]methyl}-1H-1,2,3-triazol-1-yl)acetyl]piperazin-1-yl}-3,3-dimethyl-1-propyl-3,4-dihydro-1H-pyrano [3,4-c]pyridine-5-carbonitrile [7i] | >500 mg/kg | – | 2.2 ± 0.61 | 16.0 ± 5.2 s | 242.0 ± 16.46 s | 286.0 ± 6.3 s | 299.0 ± 6.3 s | 3.4 ± 1.89 | 15.0 ± 4.28 | 50.2 ± 5.5 | – | 20.4 | 41.0 ± 1.75 min | 4.1 | 695 (579 ÷ 834) mg/kg | 62.0 ± 5.04 s | 300.0 ± 19.35 s | 42.0 ± 8.43 s | –
3 | 6-{4-[(4-{[(4-Cyano-1-methyl-5,6,7,8-tetrahydroisoquinolin-3-yl)oxy]methyl}-1H-1,2,3-triazol-1-yl)acetyl]piperazin-1-yl}-1,3,3-trimethyl-3,4-dihydro-1H-pyrano [3,4-c]pyridine-5-carbonitrile [7d] | >500 mg/kg | – | 1.36 ± 0.8 | 15.0 ± 3.62 s | 264 ± 8.12 s | 284.0 ± 6.8 s | 299.0 ± 7.2 s | 6.2 ±0.38 | 14.4 ± 3.98 | 38.6 ± 5.18 | 16 (13.1 ÷ 19.5) mg/kg | – | 41.2 ± 1.61 min | 4.12 | 800 (672 ÷ 952) mg/kg | 77.4 ± 7.1 s | 300.0 ± 29.2 s | 21.0 ± 3.2 s | –
4 | 6-{4-[(4-{[(5-Cyano-3,3,8-trimethyl-3,4-dihydro-1H-pyrano [3,4-c]pyridin-6-yl)oxy]methyl}-1H-1,2,3-triazol-1-yl)acetyl]piperazin-1-yl}-1-ethyl-3,3-dimethyl-3,4-dihydro-1H-pyrano [3,4-c]pyridine-5-carbonitrile [7n] | >500 mg/kg | – | 1.4 ± 1.2 | 82.0 ± 15.2 s | 204.0 ± 14.2 s | 283.0 ± 7.1 s | 297.0 ± 6.8 s | 3.0 ± 0.89 | 11.6 ± 2.5 | 52.2 ± 12.2 | 26 (18.6 ÷ 36.4) mg/kg | 31.5 | 41.2 ± 1.61 min | 4.12 | 820 (689 ÷ 976) mg/kg | 42.0 ± 12.04 s | 324.0 ± 22.4 s | 12.0 ± 1.4 s | –
5 | CCCc1nc(N2CCN(C(=O)Cn3cc(COc4nc(-c5ccco5)c5c(c4C#N)CCCC5)nn3)CC2)c(C#N)c2c1COC(C)(C)C2 [7l, 6-(4-{[4-({[4-Cyano-1-(2-furyl)-5,6,7,8-tetrahydroisoquinolin-3-yl]oxy}methyl)-1H-1,2,3-triazol-1-yl]acetyl}piperazin-1-yl)-3,3-dimethyl-8-propyl-3,4-dihydro-1H-pyrano [3,4-c]pyridine-5-carbonitrile] | – | – | – | – | – | – | – | – | – | – | – | – | – | – | – | – | – | – | 144 to 146 °C
6 | CCCc1nc(OCc2cn(CC(=O)N3CCN(c4nc(C)c5c(c4C#N)CC(C)(C)OC5)CC3)nn2)c(C#N)c2c1COC(C)(C)C2 [7s, 6-{4-[(4-{[(5-Cyano-3,3-dimethyl-8-propyl-3,4-dihydro-1H-pyrano [3,4-c]pyridin-6-yl)oxy]methyl}-1H-1,2,3-triazol-1-yl)acetyl]piperazin-1-yl}-3,3,8-trimethyl-3,4-dihydro-1H-pyrano [3,4-c]pyridine-5-carbonitrile] | – | – | – | – | – | – | – | – | – | – | – | – | – | – | – | – | – | – | 192 to 194 °C
